Measurements from patent publication US6084072A, “Purified lectin and methods of use” (The Regents of the University of Michigan, priority 1993, dated 2000).
“Also recorded” adds a separate entry of the source.

Experiments:
amaranthin = amaranthin (Amaranthus caudatus, UniProt Q71QF2); assay: Hapten inhibition of amaranthin/asialo-ovine submaxillary mucin precipitation; type: binding; conditions: for Relative Inhibition potency ACA: N-Acetylgalactosamine = 1
Method: Precipitation assays were conducted in 1.5 ml centrifuge tubes by the method of So and Goldstein. Indicated amounts of glycoprotein were added to 80 μg of amaranthin, and the total volume was adjusted to 250 μl with phosphate buffered saline. The tubes were incubated at 37° C. and then kept at 4° C. for 2 days. The precipitates were centrifuged, washed with cold Phosphate buffered saline, dissolved in 0.05 N NaOH and analyzed for protein by the method of Lowery et al. using bovine serum albumin as the standard. Hapten inhibition assays were carried out using 80 μg of amaranthin, 5 μg of asialo-ovine submaxillary mucins, and the indicated sugar concentrations. Inhibition was determined relative to the amount of precipitate formed in the control with no sugar added. All precipitation assays were conducted in duplicate to bring the tolerance within ±5% and the amount of precipitate formed average.

PNA = molecular target: T1, PNA (Arachis hypogaea, UniProt P02872); assay: Hapten inhibition of PNA/asialoglycophorin precipitation; type: binding; conditions: for Relative Inhibition potency PNA: Galactose = 1, 40 μg PNA, 6 μg asialoglycophorin
T1 construct: purchased E.Y. Laboratories, San Mateo, Calif; (donated by Dr. A. Chu)
T1 sequence (P02872 24-273): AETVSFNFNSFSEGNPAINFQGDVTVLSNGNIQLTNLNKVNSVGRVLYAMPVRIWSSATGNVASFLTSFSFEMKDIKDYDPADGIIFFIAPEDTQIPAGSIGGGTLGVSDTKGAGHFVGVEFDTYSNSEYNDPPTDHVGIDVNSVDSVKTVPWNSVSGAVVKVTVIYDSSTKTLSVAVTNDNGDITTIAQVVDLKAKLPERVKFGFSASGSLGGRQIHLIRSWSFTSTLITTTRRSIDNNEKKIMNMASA
Method: Precipitation reactions with PNA were carried out similarly, except that 40 μg of PNA was used. Hapten inhibition studies with PNA used 40 μg of PNA, 6 μg of asialoglycophorin, and the indicated sugar concentrations.

amaranthin, sequence (Q71QF2 entry or part of it): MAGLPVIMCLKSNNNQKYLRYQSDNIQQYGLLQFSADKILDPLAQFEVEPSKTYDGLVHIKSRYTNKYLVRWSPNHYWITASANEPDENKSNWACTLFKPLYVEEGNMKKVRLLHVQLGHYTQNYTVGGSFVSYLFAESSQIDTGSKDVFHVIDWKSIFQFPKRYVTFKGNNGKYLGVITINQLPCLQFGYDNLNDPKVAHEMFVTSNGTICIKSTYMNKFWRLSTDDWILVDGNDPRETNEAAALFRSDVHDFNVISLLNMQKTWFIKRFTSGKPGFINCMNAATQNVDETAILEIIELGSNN

| SMILES | IC50 (amaranthin) [µM] | Relative Inhibition potency ACA (amaranthin) | further results |
| --- | --- | --- | --- |
| CO[C@H]1O[C@H](CO)[C@H](O)[C@H](O)[C@H]1OC(C)=O [Methyl (2-O-acetyl)-α-galactoside] | 2140 | 0.4 | times less potent than GalNAcα-O--CH3 (amaranthin; inhibitor of amaranthin): 8.6 |
| OC[C@H]1OC(O)[C@H](O)[C@@H](O)[C@@H]1O (some centres unmarked) [Glucose] | – | < 0.002 | – |
| CC(=O)N[C@H]1[C@@H](O[C@H]2[C@@H](O)[C@@H](CO)OC(O)[C@@H]2O)O[C@H](CO)[C@H](O)[C@@H]1O (some centres unmarked) [GalNAcα1,3Gal] | 310 | 2.5 | – |
| CC(=O)N[C@H]1[C@H](O[C@H]2[C@@H](O)[C@@H](CO)O[C@@H](O[C@H]3[C@@H](O)[C@@H](CO)O[C@H](OCc4ccccc4)[C@@H]3NC(C)=O)[C@@H]2O)O[C@H](CO)[C@@H](O)[C@@H]1O [GlcNAcβ1,3Galβ1,3GalNAcα-O-benzyl] | 25 | 32 | Relative Inhibition potency PNA (PNA): < 10; decrease of potency by a factor, against Galβ1,3GalNAcα-O-benzyl (amaranthin; C'-3 substitution with GlcNAc): 10; fold lower reactivity compared with NeuAcα2,3Galβ1,3GalNAcα-O (amaranthin; amaranthin): 10 |
| OC[C@H]1O[C@H](OC[C@H]2OC(O)[C@H](O)[C@@H](O)[C@@H]2O)[C@H](O)[C@@H](O)[C@H]1O (some centres unmarked) [Galα1,6Glc] | – | < 0.008 | – |
| C=CCO[C@H]1O[C@H](CO)[C@H](O)[C@H](O[C@@H]2O[C@H](CO)[C@H](O)[C@H](O)[C@H]2O)[C@H]1NC(C)=O [Galβ1,3GalNAcα-O-CH2 CH = CH2] | 2.1 | 376 | Relative Inhibition potency PNA (PNA): 38; fold more potent than the anomeric β-O-allyl glycoside (amaranthin; inhibitor of amaranthin): 16 |
| CC(=O)N[C@H]1C(O)O[C@H](CO)[C@@H](O)[C@@H]1O[C@@H]1O[C@H](CO)[C@H](O)[C@H](O)[C@H]1O (some centres unmarked) [Galβ1,3GlcNAC] | – | < 0.08 | inhibition of amaranthin/AOSM precipitation, in words (amaranthin): very poor inhibitor |
| CC(=O)N[C@H]1[C@@H](OCc2ccccc2)O[C@H](CO)[C@H](O)[C@@H]1O[C@@H]1O[C@H](C)[C@H](O)[C@H](O)[C@H]1O [D-Fubcβ1,3GalNAcα-O-benzyl] | 1.9 | 416 | Relative Inhibition potency PNA (PNA): 11; inhibition of amaranthin/AOSM precipitation, in words (amaranthin): very good inhibitor |
| CC(=O)N[C@H]1[C@H](OC[C@H]2OC(O)[C@H](O)[C@@H](O)[C@H]2O)O[C@H](CO)[C@H](O)[C@@H]1O (some centres unmarked) [GalNAcβ1,6Gal] | 1000 | 0.8 | – |
| OC[C@H]1OC(O)[C@H](O)[C@@H](O)[C@H]1O (some centres unmarked) [Galactose] | – | < 0.002 | inhibition of amaranthin/AOSM precipitation, in words (amaranthin): very poor inhibitors; also recorded: not by galactose |
| CO[C@@H]1O[C@H](CO)[C@H](O)[C@H](O)[C@H]1O [Methyl β-galactoside] | – | < 0.003 | Relative Inhibition potency PNA (PNA): 0.8 |
| N[C@H]1C(O)O[C@H](CO)[C@H](O)[C@@H]1O (some centres unmarked) [Galactosamine] | – | < 0.002 | inhibition of amaranthin/AOSM precipitation, in words (amaranthin): very poor inhibitors |
| CO[C@H]1O[C@H](CO)[C@H](O)[C@H](O[C@@H]2O[C@H](CO)[C@H](O)[C@H](O)[C@H]2O)[C@H]1O [Galβ1,3Galα-O-CH3] | – | < 0.8 | inhibition of PNA, in words (PNA): rather good inhibitors; Relative Inhibition potency PNA (PNA): 4.2; inhibition of amaranthin/AOSM precipitation, in words (amaranthin): very poor inhibitors |
| CO[C@H]1O[C@H](CO)[C@H](O)[C@H](O[C@@H]2O[C@H](CO)[C@@H](O)[C@H](O)[C@H]2O)[C@H]1NC(C)=O [Gacβ1,3GalNAcα-O-CH3] | 36 | 22 | times less potent than Galβ1,3GalNAcα-O--CH3 (amaranthin; inhibitor of amaranthin): 10 |
| C=CCO[C@@H]1O[C@H](CO)[C@H](O)[C@H](O[C@@H]2O[C@H](CO)[C@H](O)[C@H](O)[C@H]2O)[C@H]1NC(C)=O [Galβ1,3GalNAcβ-O-CH2 -CH = CH2] | 34 | 23 | – |
| COC(=O)CCCCCCCCO[C@H]1O[C@H](CO)[C@H](O)[C@H](O[C@@H]2O[C@H](CO)[C@H](O)[C@H](O[C@]3(C(=O)O)C[C@H](O)[C@@H](NC(C)=O)[C@H]([C@H](O)[C@H](O)CO)O3)[C@H]2O)[C@H]1NC(C)=O [NeuAcα2,3Galβ1,3GalNAcα-O-(CH2)8 --CO2 CH3] | 1.8 | 439 | inhibition of amaranthin/AOSM precipitation, in words (amaranthin): does not decrease inhibitory potency |
| CC(=O)N[C@H]1[C@@H](Oc2ccc([N+](=O)[O-])cc2)O[C@H](CO)[C@H](O)[C@@H]1O [p-NitrophenylN-acetyl-α-galactosiminide] | 450 | 1.8 | – |
| CO[C@H]1O[C@H](CO)[C@H](O)[C@H](O)[C@H]1O [Methyl α-galactoside] | – | < 0.003 | Relative Inhibition potency PNA (PNA): 2.2 |

| SMILES | IC50 (amaranthin) [µM] | Relative Inhibition potency ACA (amaranthin) | further results |
| --- | --- | --- | --- |
| CO[C@H]1O[C@H](CO)[C@H](O)[C@H](O)[C@H]1NC(=O)c1ccccc1 [Methyl (2-N-benzamido)-α-galactosaminide] | 850 | 0.9 | – |
| CO[C@H]1O[C@H](CO)[C@H](O)[C@H](O)[C@H]1NC(=O)c1ccc([N+](=O)[O-])cc1 [Methyl (2-N-p-nitrobenzamindo)-α-galactosaminide] | 140 | 5.6 | – |
| COC(=O)CCCCCCCCO[C@H]1O[C@H](CO)[C@H](O)[C@H](O[C@@H]2O[C@H](CO)[C@H](O)[C@H](O)[C@H]2O)[C@H]1NC(C)=O [Galβ1,3GalNAcαO(CH2)8 -CH-CH3] | 1.8 | 439 | Relative Inhibition potency PNA (PNA): 47 |
| CC(=O)N[C@H]1[C@H](Oc2ccc([N+](=O)[O-])cc2)O[C@H](CO)[C@H](O)[C@@H]1O [p-NitrophenylN-acetyl-β-Zgalactosaminide] | – | < 0.3 | – |
| OC[C@H]1O[C@@H](O[C@H]2[C@H](O)[C@@H](O)C(O)O[C@@H]2CO)[C@H](O)[C@@H](O)[C@H]1O (some centres unmarked) [Galβ1,4Glc] | – | < 0.01 | – |
| CC(=O)N[C@H]1[C@@H](OC[C@H]2OC(O)[C@H](O)[C@@H](O)[C@H]2O)O[C@H](CO)[C@H](O)[C@@H]1O (some centres unmarked) [GalNAcα1,6Gal] | 210 | 3.8 | – |
| C=CCO[C@@H]1O[C@H](CO)[C@@H](O)[C@H](O[C@@H]2O[C@H](CO)[C@H](O)[C@H](O)[C@H]2O)[C@H]1NC(C)=O [Galβ1,3GlcNAcβ-O-CH2 --CH--CH2] | – | < 0.08 | – |
| CO[C@@H]1C[C@@H](O)[C@@H](O)[C@@H](CO)O1 [Methyl (2-deoxy)-α-galactose] | – | < 0.08 | – |
| CC(=O)N[C@H]1[C@@H](Oc2ccccc2[N+](=O)[O-])O[C@H](CO)[C@H](O)[C@@H]1O[C@@H]1O[C@H](CO)[C@H](O)[C@H](O)[C@H]1O [Galβ1,3GalNAcα-O-o-nitrophenyl] | 2.1 | 376 | – |
| CO[C@H]1O[C@H](CO)[C@H](O)[C@H](O)[C@H]1OC(=O)c1ccc([N+](=O)[O-])cc1 [Methyl (2-O-p-nitrobenzoate)-α-galactoside] | – | < 0.1 | – |
| CC(=O)N[C@H]1CO[C@H](CO)[C@H](O)[C@@H]1O[C@@H]1O[C@H](CO)[C@H](O)[C@H](O)[C@H]1O [Galβ1,3(2-acetamido-2-deoxy-1,5-anhydrogalactitol)] | 5.8 | 136 | Relative Inhibition potency PNA (PNA): 14; times less potent than Galβ1,3GalNAc (amaranthin; inhibitor of amaranthin): 1.7 |
| CC(=O)N[C@H]1[C@H](O[C@H]2[C@@H](O)[C@@H](CF)O[C@H](OCc3ccccc3)[C@@H]2NC(C)=O)O[C@H](CO)[C@@H](O)[C@@H]1O [GlcNAcβ1,3[6-F]GalNAcα-O-benzyl] | – | < 0.08 | – |
| CO[C@@H]1O[C@H](CO)[C@H](O)[C@H](O)[C@H]1NC(C)=O [Methyl N-acetyl-β-galactosaminide] | 11300 | 0.07 | – |
| C[C@H]1OC(O)[C@H](O)[C@@H](O)[C@H]1O (stereo partly drawn) [D-Fucose] | – | < 0.002 | – |
| CO[C@H]1O[C@H](CO)[C@H](O)[C@H](O[C@@H]2O[C@H](CO)[C@H](O)[C@H](O)[C@H]2O)[C@H]1NC(C)=O [Galβ1,3GalNAcα-O-CH3] | 3.1 | – | Relative Inhibition potency PNA (PNA): 47 |
| CC(=O)N[C@H]1[C@@H](OCc2ccccc2)O[C@H](CF)[C@H](O)[C@@H]1O[C@@H]1O[C@H](CO)[C@H](O)[C@H](O)[C@H]1O [Galβ1,3[6-F]GalNAcα-O-benzyl] | 1.7 | 465 | inhibition of amaranthin/AOSM precipitation, in words (amaranthin): inhibition is equivalent to Galβ1,3GalNAca-O-benzyl |
| COC(=O)[C@H](CO[C@H]1O[C@H](CO)[C@H](O)[C@H](O)[C@H]1NC(C)=O)NC(=O)OCc1ccccc1 [3-O-(2-N-acetyl-α-D-galactopyranosyl-N-(benzyloxcarbonyl)-L-serinemethyl ester] | 53 | 15 | – |
| CO[C@H]1O[C@H](CO)[C@H](O)[C@H](O)[C@H]1NC(C)=O [Methyl N-acetyl-α-galactosaminide] | 250 | 3.2 | inhibition of amaranthin/AOSM precipitation, in words (amaranthin): best monosaccharide inhibitor |
